For this assay, the target named is B-Raf (V600E)-kinase (Homo sapiens (Human), UniProt P15056, V600E). Description: Kinase test B-RAF (V600E). It is filed as biochemical. Conditions: B-RAF (V600E) kinase test, 250 μM ATP. Put shortly: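 B-Raf (V600E) (0.5 ng) preincubated with compound 24 h at RT (5% DMSO), then reacted 60 min at RT with 250 μM ATP and biotinylated MEK1 as substrate. Phospho-MEK (Ser217/221) captured on streptavidin and detected by europium time-resolved fluorescence; IC50 from dose-response curves.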
Chain of B-Raf (V600E)-kinase (P15056 whole entry V600E): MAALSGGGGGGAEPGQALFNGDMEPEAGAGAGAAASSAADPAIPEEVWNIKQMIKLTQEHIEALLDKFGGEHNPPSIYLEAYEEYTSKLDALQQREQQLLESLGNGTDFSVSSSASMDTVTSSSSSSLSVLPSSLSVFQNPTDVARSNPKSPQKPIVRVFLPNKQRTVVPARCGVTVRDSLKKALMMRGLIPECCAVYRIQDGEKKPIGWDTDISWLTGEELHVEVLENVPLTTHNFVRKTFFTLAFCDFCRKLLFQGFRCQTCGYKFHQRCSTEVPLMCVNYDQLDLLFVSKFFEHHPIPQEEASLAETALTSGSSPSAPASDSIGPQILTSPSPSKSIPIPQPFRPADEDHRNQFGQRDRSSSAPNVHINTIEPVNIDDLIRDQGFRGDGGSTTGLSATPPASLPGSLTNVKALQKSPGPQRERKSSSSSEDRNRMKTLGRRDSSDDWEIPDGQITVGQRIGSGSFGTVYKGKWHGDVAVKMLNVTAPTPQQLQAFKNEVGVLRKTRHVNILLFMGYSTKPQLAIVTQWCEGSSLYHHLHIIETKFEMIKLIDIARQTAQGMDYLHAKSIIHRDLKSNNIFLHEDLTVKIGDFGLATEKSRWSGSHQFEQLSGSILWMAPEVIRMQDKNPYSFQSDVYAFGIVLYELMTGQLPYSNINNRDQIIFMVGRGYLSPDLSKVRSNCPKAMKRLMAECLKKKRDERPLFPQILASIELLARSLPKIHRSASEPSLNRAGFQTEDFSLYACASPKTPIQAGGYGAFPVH

In turn, `Cc1ccc(C(=O)Nc2cc(N3CCCN(C)CC3)cc(C(F)(F)F)c2)cc1Nc1ncnc2cnc(N(C)CCF)nc12` [III-514] returned a concentration for half-maximal inhibition (IC50) of 1 nM. This lies in the single-digit nanomolar range. The same measure for `Cc1ccc(C(=O)Nc2cc(-n3ccnc3)cc(C(F)(F)F)c2)cc1Nc1ncnc2cnc(N3CCOCC3)nc12` [III-530]: 582 nM; for `Cc1ccc(C(=O)Nc2cc(C(F)(F)F)ccn2)cc1Nc1ncnc2cnc(N3CC[C@H](F)C3)nc12` [III-345]: 1 nM.

As for `COc1ccc(C(C)(C)C)cc1NC(=O)c1ccc(C)c(Nc2ncnc3cnc(N4CC[C@H](F)C4)nc23)c1` [III-291], it took 21 nM to reach half-maximal inhibition (IC50). Compared with the last compound, the IC50 is about 21-fold higher. The same measure for `Cc1ccc(C(=O)NC2CCCCC2)cc1Nc1ncnc2cnc(N3CCCC3)nc12` [III-258]: 15000 nM; for `COc1ccc(C(=O)Nc2cccc(C(F)(F)F)c2)cc1Nc1ncnc2c(N)nc(N3CCN(C)CC3)nc12` [I-30]: 35 nM. Compound `COc1ccc(NC(=O)c2ccc(C(F)(F)F)c(Nc3ncnc4cnc(N5CCCCCC5)nc34)c2)cc1C(F)(F)F` [III-44] yielded a half-inhibitory concentration (IC50) of more than 2000 nM. To `Cc1ccc(NC(=O)c2cccc(C(C)(C)C#N)c2)cc1Nc1ncnc2cnc(NC3CCOC3)nc12` (stereo not drawn) [IV-30] belongs less than 1 nM; to `Cc1ccc(C(=O)Nc2cc(C(C)(C)C)on2)cc1Nc1ncnc2cnc(N3C[C@@H](C)N[C@@H](C)C3)nc12` [III-496], 2 nM; to `COc1ccc(C(=O)Nc2cc(C(C)(C)C)on2)cc1Nc1ncnc2cnc(N(C)C)nc12` [III-83], 8 nM. `CCN1CCN(c2cc(NC(=O)c3ccc(C)c(Nc4ncnc5c(N)nc(N6CC[C@H](F)C6)nc45)c3)cc(C(F)(F)F)c2)CC1` [I-88] displayed an IC50 of 10 nM. The same measure for `Cc1ccc(C(=O)Nc2ccc(C#N)c(C(F)(F)F)c2)cc1Nc1ncnc2cnc(N3CCCCC3)nc12` [III-333]: 56 nM; for `Cc1ccc(C(=O)Nc2cc(C(C)(C)C)on2)cc1Nc1ncnc2cnc(N3CCC(N4CCCC4)CC3)nc12` [III-490]: 2 nM. The same measure for `Cc1ccc(C(=O)Nc2cc(N(C)CCN(C)C)cc(C(F)(F)F)c2)cc1Nc1ncnc2cnc(NCc3cccnc3)nc12` [III-168]: less than 1 nM; for `CN1CCC(CN2CCN(c3ncc4ncnc(Nc5cc(C(=O)Nc6cc(C(C)(C)C)on6)ccc5F)c4n3)CC2)CC1` [III-394]: 1 nM. The same measure for `Cc1ccc(C(=O)Nc2cccc(N(C)C)c2)cc1Nc1ncnc2cnc(N3CC[C@@H](F)C3)nc12` [III-243]: less than 1 nM; for `Cc1ccc(C(=O)Nc2cc(C(C)(C)C)nn2C)cc1Nc1ncnc2cnc(NC3CCOC3)nc12` (stereo not drawn) [III-348]: less than 1 nM. For `Cn1nc(C(C)(C)C)cc1NC(=O)c1ccc(F)c(Nc2ncnc3cnc(NC4CCOC4)nc23)c1` (stereo not drawn) [III-387], half-maximal inhibition (IC50) was put at 2 nM. To `Cn1nc(C(C)(C)C)cc1NC(=O)c1ccc(F)c(Nc2ncnc3cnc(N4CCOCC4)nc23)c1` [III-384] belongs 2 nM.

`Cc1ccc(NC(=O)c2cc(N3CCN(C)CC3)cc(C(F)(F)F)c2)cc1Nc1ncnc2cnc(N(C)C)nc12` [IV-13] registered an IC50 of 3 nM.

`COCCN(C)c1ncc2ncnc(Nc3cc(C(=O)Nc4cc(OCCN(C)C)cc(C(F)(F)F)c4)ccc3C)c2n1` [III-141] showed a half-maximal inhibitory concentration (IC50) of 2 nM. To `COc1ccc(NC(=O)c2ccc(Cl)c(Nc3ncnc4cnc(N5CCOCC5)nc34)c2)cc1C(F)(F)F` [III-12] belongs 2 nM; to `COc1ccc(NC(=O)c2ccc(F)c(Nc3ncnc4cnc(N5CCCCC5)nc34)c2)cc1C(F)(F)F` [III-35], 5 nM; to `COCCN(C)c1ncc2ncnc(Nc3cc(C(=O)Nc4cc(N(C)CCN(C)C)cc(C(F)(F)F)c4)ccc3C)c2n1` [III-469], less than 1 nM. The same measure for `COc1ccc(C(F)(F)F)cc1NC(=O)c1ccc(C)c(Nc2ncnc3cnc(N4CCCCC4)nc23)c1` [III-262]: 9 nM. `Cc1ccc(C(=O)Nc2cccc(N(C)C)c2)cc1Nc1ncnc2cnc(N3CCNCC3)nc12` [III-263] registered an IC50 of 15 nM. `COc1ccc(NC(=O)c2ccc(C)c(Nc3ncnc4cnc(N(C)CC5CCCCO5)nc34)c2)cc1C(F)(F)F` (stereo not drawn) [III-409] showed an IC50 of 9 nM.
